This is an account of results in US8653260B2, “Hydroxymethyl pyrrolidines as beta 3 adrenergic receptor agonists” (Merck Sharp & Dohme Corp., priority 2008, dated 2014).

Read-outs that look alike come from different tables or passages of the source.

Experiment [1] has as its target T1, human β3 adrenergic receptor (Homo sapiens, UniProt P13945).
T1 construct: expressed in transfected cells; host or cells: CHO cells, stably transfected
The experiment can be described thus: Functional assay: cAMP production (LANCE) in CHO cells expressing β3 adrenergic receptor. In kind it is cell-based. As to the method: Chinese hamster ovary (CHO) cells, stably transfected with the cloned β-adrenergic receptor (β1, β2 or β3) are harvested after 3 days of subculturing. Harvesting of cells is done with Enzyme-free Dissociation Media (Specialty Media). Cells are then counted and resuspended in assay buffer (Hank's Balanced salt solution supplemented with 5 mM HEPES, 0.1% BSA) containing a phosphodiesterase inhibitor (IBMX, 0.6 mM). The reaction is initiated by mixing 6,000 cells in 6 μL with 6 μL Alexa Fluor labeled cAMP antibody (LANCE™ kit) which is then added to an assay well containing 12 μL of compound (diluted in assay buffer to 2× final concentration). The reaction proceeds for 30 min at room temperature and is terminated by the addition of 24 μL detection buffer (LANCE™ kit). The assay plate is then incubated for 1 h at room temperature and time-resolved fluorescence measured on a Perkin Elmer Envision reader or equivalent. The unknown cAMP level is determined by comparing fluorescence levels to a cAMP standard curve.
The non-selective, full agonist β-adrenergic ligand isoproterenol is used at all three receptors to determine maximal stimulation. […] Data are analyzed using Microsoft Excel and Graphpad Prism or an internally developed data analysis software package.
(Cyclic AMP is a second messenger, typically raised through Gs and lowered through Gi signalling.)

The next experiment has as its system rats. Conditions: intravenous administration, cited from earlier work.
Where [2] appears, read: cAMP production, CHO cells, given as a range, read-out: human β3 functional activity.

T1 sequence (P13945 whole entry): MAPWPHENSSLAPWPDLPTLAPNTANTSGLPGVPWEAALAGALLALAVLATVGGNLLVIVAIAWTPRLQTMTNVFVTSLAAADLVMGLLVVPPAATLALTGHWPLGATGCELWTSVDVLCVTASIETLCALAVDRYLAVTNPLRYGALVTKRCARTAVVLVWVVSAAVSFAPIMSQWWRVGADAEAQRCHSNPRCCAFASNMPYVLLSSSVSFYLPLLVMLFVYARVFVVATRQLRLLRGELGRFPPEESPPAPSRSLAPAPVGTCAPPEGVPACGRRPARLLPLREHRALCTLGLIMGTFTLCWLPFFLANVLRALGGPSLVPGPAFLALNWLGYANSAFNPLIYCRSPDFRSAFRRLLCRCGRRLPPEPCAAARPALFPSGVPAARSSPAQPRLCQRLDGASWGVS

For the compound `O=C(Nc1ccc(C[C@@H]2CC[C@H]([C@H](O)c3ccccc3)N2)cc1)[C@@H]1CCc2cccc(=O)n21` (single isomer, unassigned) [Example 101], in experiment [1] (setting [2]), the EC50 was 1 to 10 nM.
Take `O=C(Nc1ccc(C[C@@H]2CC[C@H]([C@H](O)c3ccccc3)N2)cc1)C1CCc2cccc(=O)n21` (single isomer, unassigned) [Example 102]: in experiment [1] (setting [2]), the EC50 is less than 1 nM.
For the compound `CC(C(=O)Nc1ccc(C[C@@H]2CC[C@H]([C@H](O)c3ccccc3)N2)cc1)n1ccccc1=O` (single isomer, unassigned) [Example 203], in experiment [1] (Table 5, read-out: Human β3 Functional), the EC50 was in the range of 1 to 10 nM.
Turning to `Nc1nc2c(s1)CCC2C(=O)Nc1ccc(CC2CCC(C(O)c3ccc(F)cc3)N2)cc1` (single isomer, unassigned) [Example 308], in experiment [1] (human β3 functional activity, given as ranges, read-out: Human β3 Functional), the EC50 lay in the range of 1 to 10 nM.
Take `C[C@H](Cc1ccc2c(c1)OC(C(=O)[O-])(C(=O)[O-])O2)NC[C@H](O)c1cccc(Cl)c1.[Na+].[Na+]` [CL316243]: the bladder capacity entry in the experiment with rats (cystometric studies) is reported as “increases bladder capacity”. Also, in the experiment on rats, the bladder pressure entry is listed as “reduces bladder pressure”.
Take `Cc1nc(CC(=O)Nc2ccc(C[C@@H]3CC[C@H]([C@H](O)c4ccccc4)N3)cc2)c(C)s1` [Example 10]: in experiment [1] (Table 4, text b832: human β3 functional activity, read-out: Human β3 Binding), the EC50 lay within 1 to 10 nM.
